The source of these data is patent US10285994B2, “Method of preventing or treating osteoporosis by neddylation inhibitor” (Chang Gung University, priority 2017, dated 2019).

The subject of one data set is RAW264.7 cells. As to the kind of experiment: Osteoclast formation from RAW264.7 cells, TRAP staining. The format is cell-based, mouse. The following applies: sRANKL-activated RAW264.7 cells, 7 days, FIG. 2A. As to the method:
FIGS. 2A-2D are data collected from RAW264.7 cells respectively incubated in the medium containing sRANKL (50 ng/ml) and specified concentrations of MLN4924 for 7 days according to example 1.2 of the present disclosure. FIG. 2A: the photographs of TRAP staining depicting the differentiation of osteoclasts from RAW264.7 cells. FIG. 2B: after the differentiation of osteoclasts in Corning Osteo Surface, the cells were removed, and the resorbed areas for confirming osteoclast activity were analyzed by 1% toluidine blue staining. FIG. 2C: the culture medium is subject to Biovision Cathepsin K Activity Fluorometric Assay Kit for the analysis of cathepsin K activity. FIG. 2D: the effect of effective doses of MLN4924 on the viability of RAW264.7 cells is evaluated by MTT assay. Scale bar represents 100 μm. Data are expressed as mean±SD where *p<0.05.
RAW264.7 cells (murine monocytic/macrophage cell line) were cultured in Dulbecco's modified Eagle's medium high glucose (DMEM)(Gibco BRL, Gaithersburg, Md.) containing 10% fetal bovine serum (Gibco) and 1× GlutaMax (Gibco).
For in vitro osteoclast formation, the pre-osteoclasts and RAW264.7 cells were cultured in the medium containing 50 ng/ml sRANKL […] specified concentrations of MLN4924 for seven days. […]

The subject of data set [1] is ovariectomized (OVX) mice. As to the kind of experiment: Three-point bending test of femurs of OVX + sRANKL mice. The data set is classed as in vivo, mouse. The following applies: 10 mg/kg i.p. once daily for 2 weeks. From the text: FIGS. 7A-7D are histograms respectively depicting the mechanical properties of femurs in control, OVX, OVX+RANKL, and OVX+RANKL+MLN4924 groups according to example 5.2 of the present disclosure, including modulus (FIG. 7A), strain at break (FIG. 7B), stress at yield (FIG. 7C), and load at break (FIG. 7D). Values are expressed as mean±SD, N=6 per group. *p<0.05; **p<0.01.
All experimental procedures were approved by the Institutional Animal Care and Use Committee of the Chang Gung Memorial Hospital at Chiayi and complied with the Guideline for the Care and Use of Laboratory Animals available through the National Academy of Sciences (IACUC number: 2013100102 and 2015103001). All efforts were made to minimize the suffering of the animals. C57BL/6J female mice (6-8 weeks old; obtained from BioLasco in Taiwan) were operated ovariectomy surgery (OVX). 48 hours later of OVX operation, sRANKL (1 mg/kg) or saline was injected intraperitoneally once daily for two days followed by intraperitoneal injection of MLN4924 (10 mg/kg) once daily for 2 weeks. Mice were sacrificed with CO2 asphyxiation, and the tibias and femurs were isolated therefrom. The tibias were subject to histochemistry assay, and the femurs were subject to bending test and tomographic analysis by MTS (Testresources, Shakopee, Minn.) and Skyscan 1272 (Bruker, Kontich, Belgium), respectively. Serum levels of cross linked C-telopeptide of type I collagen (CTX-1) (CEA665Mu) was measured by specific ELISA kit (USCN life science incorporation, Wuhan, Hubei, China).
The femurs were tested to failure by three-point bending on an MTS Synergie 200 (Testresources, Shakopee, Minn.). The speed of load application was set as 1 mm/min with preload of 1N, load cell of 500N, settling time of 30 seconds and distance between the points of 10 mm. Force-displacement data were plotted from the structural properties, including modulus, load at break, stress at yield and strain at yield.
Bone loss results in bone fragile, thus rendering bone being easier to break. In this example, mice were first treated with OVX or OVX+sRANKL to cause bone loss, and then MLN4924 was administered. The femurs of mice were then subject to shaft fracture testing by three-point bending so as to evaluate the biomechanical properties thereof.

The test system of data set [2] is primary mouse bone marrow-derived macrophages (BMMs). Kind of data set: Viability of BMMs (WST / MTT assay). The data set is classed as cell-based. To be noted: doses that inhibit osteoclast differentiation, FIG. 1D. Here is the method: FIGS. 1A-1D are data collected from primary mouse bone marrow-derived macrophages (BMMs) respectively incubated in the medium containing the soluble recombinant RANKL (sRANKL, 50 ng/ml), macrophage colony-stimulating factor (M-CSF, 40 ng/ml) and specified concentrations of MLN4924 for 7 days according to example 1.1 of the present disclosure. FIG. 1A: the photographs of TRAP staining depicting the differentiation of osteoclasts from BMMs. FIG. 1B: after the differentiation of osteoclasts in Corning Osteo Surface (a synthetic 3-dimensional structure that mimics in vivo bone for in vitro bone cell assays), the cells were removed, and the resorbed areas for confirming osteoclast activity were analyzed by 1% toluidine blue staining. FIG. 1C: the culture medium is subject to Biovision Cathepsin K Activity Fluorometric Assay Kit for the analysis of cathepsin K activity. FIG. 1D: the effect of effective doses of MLN4924 on the viability of BMMs is evaluated by MTT assay. Scale bar represents 100 μm. Data are expressed as mean±SD where *p<0.05; **p<0.01. Next, the WST assay was used to determine whether the suppressed osteoclastogenesis by MLN4924 was caused by cytotoxicity.
On the technique in general: Formazan colour is commonly taken as a measure of viable cells.

Take `NS(=O)(=O)OC[C@@H]1C[C@@H](n2ccc3c(N[C@H]4CCc5ccccc54)ncnc32)C[C@@H]1O` [MLN4924, (1S,2S,4R)-4-(4-((1S)-2,3-Dihydro-1H-inden-1-ylamino)-7H-pyrrolo(2,3-d)pyrimidin-7-yl)-2-hydroxycyclopentyl) methyl sulphamate]: the “differentiation of osteoclasts (TRAP staining)” value in the data set with RAW264.7 cells is reported as “significantly inhibited”. Besides, in data set [1] (FIG. 7A), the femur modulus result is recorded as “prevented the levels of these parameters from dropping”. The “femur strain at break” value in data set [1] (FIG. 7B) is “prevented the levels of these parameters from dropping”. Moreover, the “femur stress at yield” value in data set [1] (FIG. 7C) is given as “prevented the levels of these parameters from dropping”. In addition, the “femur load at break” value in data set [1] (FIG. 7D) is on record as “prevented the levels of these parameters from dropping”. The “cytotoxicity / viability of BMMs” value in data set [2] was “no cytotoxic effects at doses that effectively inhibited osteoclast differentiation”.
